Test systems include NCI-H226 lung; OVCAR-3 ovarian; 786-0 renal; U251 CNS; MALME-3M melanoma; SR leukemia; NCI-H460 lung; SN12C renal; HL-60(TB) leukemia.
Holding throughout (test): DTP human tumour cell line panel, 48 h

Among the data in PubChem BioAssay (NCI) are TGI and GI50 values, retold here.

SMILES strings stand for the structures.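 Five concentrations, 48 hours, 96-well plates. Abbreviation: GI50, concentration required for 50% inhibition of growth. The concentration for full growth arrest is given as TGI.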

The TGI is the concentration giving total growth inhibition. The low end stands for more potent growth arrest, the high end for less potent growth arrest. In the case of `CCOC(=O)[C@@]12C[C@](/C=C/OC)(O[Si](C)(C)C)[C@@]13c1cc(OC)c(OC)cc1CCN3C(=O)C2=O`, the concentration for total growth inhibition (TGI) in the assay with NCI-H226 lung, in the assay on OVCAR-3 ovarian, in the assay with 786-0 renal, in the assay with U251 CNS, in the assay on MALME-3M melanoma and with SR leukemia was above 100 µM in each case. Also, the TGI in the assay with NCI-H460 lung and in the assay with SN12C renal was above 100 µM in each case.

As for `COC(=O)[C@@H]1c2c(oc3cc(CO)cc(O)c3c2=O)C=C[C@H]1O`, the TGI with NCI-H226 lung is 51.5 µM; with OVCAR-3 ovarian, 20.7 µM; with 786-0 renal, 12 µM; in the assay with U251 CNS it was 22.5 µM; with MALME-3M melanoma it was 4.91 µM; in the assay with SR leukemia, above 100 µM. For the same compound, the figures for the total growth inhibition concentration (TGI) with NCI-H460 lung and in the assay on SN12C renal were 34 µM and 23.6 µM, respectively.

As for `COCN1C(=O)[C@@H]2CCCN2C(=O)c2ccc(N)cc21`, the TGI in the assay with NCI-H226 lung, with OVCAR-3 ovarian, in the assay with 786-0 renal, in the assay with HL-60(TB) leukemia, with U251 CNS and in the assay with SR leukemia was above 100 µM in each case. Also, the concentration for total growth inhibition (TGI) in the assay with NCI-H460 lung and in the assay on SN12C renal was above 100 µM in each case.

For `CC(C)(C)OC(=O)Cn1ncn(NC(=O)Cc2ccccc2)c1=S`, the TGI in the assay with OVCAR-3 ovarian, in the assay with 786-0 renal, with U251 CNS, with MALME-3M melanoma, in the assay with SR leukemia and in the assay on NCI-H460 lung was above 10 µM throughout. For the same compound, the TGI in the assay with SN12C renal was above 10 µM.

`CCOC(=O)N1c2ccccc2C(C)=CC(C)C1C` (configuration not stated): the TGI was 80.1 µM in the assay with NCI-H226 lung; 51.1 µM in the assay on OVCAR-3 ovarian; above 100 µM in the assay on 786-0 renal; 57.2 µM with HL-60(TB) leukemia; above 100 µM with MALME-3M melanoma; 55.1 µM in the assay on SR leukemia. The total growth inhibition concentration (TGI) in the assay with NCI-H460 lung and in the assay on SN12C renal was above 100 µM throughout.

In the case of `Cc1sc(/N=C/C2=C(O)CC(C)(C)CC2=O)nc1-c1ccccc1`, the TGI was above 100 µM in the assay with NCI-H226 lung; above 100 µM in the assay with OVCAR-3 ovarian; above 100 µM in the assay with 786-0 renal; 5.93 µM in the assay on HL-60(TB) leukemia; above 100 µM with U251 CNS; above 100 µM with SR leukemia. For the same compound, the TGI in the assay on NCI-H460 lung and in the assay with SN12C renal was above 100 µM throughout.

As to `CSc1cc(Cl)c(C)cc1S(=O)(=O)NC(=O)NNc1ccc(C)cc1`, the TGI in the assay on NCI-H226 lung, in the assay with OVCAR-3 ovarian, with 786-0 renal, in the assay on U251 CNS, with MALME-3M melanoma and in the assay on SR leukemia was above 100 µM throughout. Further, the total growth inhibition concentration (TGI) in the assay on NCI-H460 lung and in the assay with SN12C renal was above 100 µM in each case.

For the compound `O=C(C[N+]12CN3CN(CN(C3)C1)C2)c1ccc(-c2ccccc2)cc1`, the TGI with NCI-H226 lung was found to be 49.3 µM; with OVCAR-3 ovarian, 78.6 µM; with 786-0 renal it was 45.9 µM; in the assay with U251 CNS it was 32.2 µM; with MALME-3M melanoma, 39.3 µM; in the assay on SR leukemia, 12.2 µM. The results for the total growth inhibition concentration (TGI) in the assay on NCI-H460 lung and in the assay on SN12C renal were 30.9 µM and 45.1 µM, respectively.

Take `O=C(/C=C/c1ccc(-c2ccccc2)cc1)NCc1ccc(C(=O)NCCc2ccccc2)cc1`: the TGI with NCI-H226 lung, with OVCAR-3 ovarian, in the assay with 786-0 renal, with U251 CNS, in the assay with MALME-3M melanoma and in the assay with SR leukemia was above 100 µM each time. Also, the TGI with NCI-H460 lung and in the assay with SN12C renal was above 100 µM in each case.

`Cc1ccc(S(=O)(=O)N/N=C2\C=CC3(CC2)C(=O)N(I)c2ccccc23)cc1` (configuration not stated): the TGI is above 100 µM in the assay with NCI-H226 lung; above 100 µM with OVCAR-3 ovarian; above 100 µM with 786-0 renal; above 100 µM with U251 CNS; 6.82 µM in the assay with MALME-3M melanoma; above 100 µM in the assay with SR leukemia. In addition, the concentration for total growth inhibition (TGI) in the assay with NCI-H460 lung and with SN12C renal was above 100 µM throughout.

Take `Cc1ccc(/C=c2\cc3oc(=O)c4cccc(c4-3)c2=O)cc1`: the total growth inhibition concentration (TGI) in the assay with OVCAR-3 ovarian, with 786-0 renal, with HL-60(TB) leukemia, in the assay on U251 CNS, in the assay with MALME-3M melanoma and in the assay with SR leukemia was above 100 µM throughout. For the same compound, the concentration for total growth inhibition (TGI) in the assay with NCI-H460 lung and in the assay on SN12C renal was above 100 µM throughout.

Consider `CC(=O)N[C@@H](Cc1ccc(O)cn1)C(=O)NCc1ccc(Cl)cc1`, for which the TGI with NCI-H226 lung, with OVCAR-3 ovarian, in the assay with 786-0 renal, in the assay on HL-60(TB) leukemia, with U251 CNS and in the assay with MALME-3M melanoma was above 100 µM throughout. Also, the TGI in the assay with NCI-H460 lung and in the assay on SN12C renal was above 100 µM throughout.

With `O=C1NC(N2CCCC(CO)C2)=N/C1=C\c1cccs1` (configuration not stated), the TGI in the assay with NCI-H226 lung, in the assay on OVCAR-3 ovarian, with 786-0 renal, in the assay on HL-60(TB) leukemia, in the assay on U251 CNS and in the assay with MALME-3M melanoma was above 100 µM each time. For the same compound, the TGI with SR leukemia and in the assay with SN12C renal was above 100 µM each time.

One may read the GI50 as the concentration at which growth is held to half of that of the control. In the case of `O=C(Nc1cccc(-n2ccc3c(NC(=O)c4ccccc4)ncnc32)c1)Nc1ccc(Cl)c(C(F)(F)F)c1`, the GI50 is 5.27 µM in the assay on NCI-H226 lung; 2.62 µM in the assay on OVCAR-3 ovarian; 1.87 µM with HL-60(TB) leukemia; 2.09 µM in the assay with U251 CNS; 1.99 µM with MALME-3M melanoma; 2.35 µM in the assay on SR leukemia. The results for the GI50 in the assay with NCI-H460 lung and in the assay on SN12C renal were 2.13 µM and 3.09 µM, respectively. Further, the TGI in the assay on NCI-H226 lung amounted to 11.5 µM; in the assay with OVCAR-3 ovarian, 8.9 µM; with HL-60(TB) leukemia, 5.28 µM; with U251 CNS, 8.39 µM; in the assay with MALME-3M melanoma it was 9.01 µM; with SR leukemia, 15 µM. Further, the results for the total growth inhibition concentration (TGI) with NCI-H460 lung and in the assay on SN12C renal were 9.88 µM and 9.86 µM, respectively.

As for `NC(=S)NNCC(=O)CC(O)(C(F)(F)F)C(F)(F)Cl` (configuration not stated), the concentration for total growth inhibition (TGI) with NCI-H226 lung, in the assay on OVCAR-3 ovarian, in the assay with 786-0 renal, with HL-60(TB) leukemia, in the assay with U251 CNS and in the assay on MALME-3M melanoma was above 100 µM each time. For the same compound, the TGI with SR leukemia and in the assay on NCI-H460 lung was above 100 µM in each case.
